# Experimental data taken from EP0380370A2, “Inhibiting tumour recurrence after surgical resection” (The Children's Medical Center Corporation, priority 1989, dated 1990).
# Where two headings read alike, the source gives them in different places. Where a SMILES comes first, the peptide text is derived from it.
# Assays:
# B16-F10 [1] = assay: in vitro tumor cell attachment assay on gelatinized culture plates (acid phosphatase colorimetric readout); assay type: cell-based
# Method: The following two examples of assays for suitable agents are designed to approximate a wound environment, and thus act as quick tests for suitable agents for practical use in particular circumstances. These assays are not limiting to the application. One example of an in vitro assay for determining the effect of one of the above agents on tumor cell attachment was performed as follows. Gelatinized 96-well tissue culture plates (Co-star, Cambridge, MA) were prepared by treating a standard culture plate with 100 microliters of 1.5% gelatin (Difco, Detroit, MI) in phosphate-buffered saline (PBS) and incubating the plate at 37°C for at least 24 hours. The solution was then aspirated and the cells washed twice with 200 microliters of PBS prior to use. Test agents were diluted in Dulbecco's Modified Eagles Medium (DMEM; Gibco Laboratories, Grand Island, NY) containing 10% fetal calf serum (FCS; Gibco), and 100 microliters of the diluted agent added to each well. […] The cells were grown in DMEM supplemented with 10% FCS, 2 mM glutamine and 100 units per ml penicillin and streptomycin.
# After the cells and agent were incubated, the medium was aspirated from each well and the well washed twice with 200 microliters of PBS. […] Briefly, 100 microliters of an acid phosphatase reagent (0.1M sodium acetate, 0.01M p-nitrophenyl phosphate, 0.1% Triton-X 100) was added to each well, the plates incubated at 37°C for two hours, and 10 microliters 1N NaOH added to each well. The optical density of each well was read at 405nm on a Biotek ELISA reader. The optical density is directly related to cell number. The results were expressed as percent of optical density in untreated control wells,and represent the mean of at least three wells.
# B16-F10 [2] = assay: reversibility test: unattached cells washed and replated on gelatinized plates in new medium; assay type: cell-based; details: cells replated in fresh medium in new dishes
# Method: In order to determine whether inhibition of cell attachment was non-toxic and reversible with any particular agent, the tumor cells were incubated in the presence of the agent and unattached cells collected, washed twice with serum containing medium, and replated on gelatinized well plates in new culture medium. Control cells were handled in a similar manner, except that they were removed from wells 16 hours after incubation by trypsinization. After incubation for 4-16 hours, the medium was aspirated, the wells washed twice with 200 microliters of PBS, and the remaining attached cells trypsinized and counted with a Coulter counter.
# B16-F10 melonoma = assay type: in vivo, C57 B1/6 mice
# Method: Inhibitors of tumor cell attachment in vivo are tested by their ability to block tumor cell attachment in a surgical wound. Wounds were made on the backs of C57 B1/6 mice (Charles River Laboratories, Wilmington, MA) using aseptic procedures under methoxyflurane anesthesia (Pittman-Moore Inc., Washington Crossing, NJ). […] The scissors were used to create a lateral subcutaneous pocket off a dorsal mid-line wound in an uncontaminated animal. Prior to use, the scissors were inspected to insure that no visible tissue was present on them. Prior to closure, the wounds were vigorously irrigated with 3ml of Ringers lactate supplemented with a chosen agent. Excess fluid was then expressed and the wound closed with skin clips.
# cancer cells = details: cited from earlier work
compound,measurement,setting,value
"N=C(N)NCCC[C@H](NC(=O)CN)C(=O)NCC(=O)N[C@@H](CC(=O)O)C(=O)N[C@@H](CO)C(=O)N1CCC[C@H]1C(=O)O [GRGDSP, glycine-arginine-glycine-aspartate-serine-proline]",concentrations at which tumor cell attachment was inhibited,B16-F10 [1],greater than 10 mg/ml
same,reversibility of inhibition of tumor cell attachment,B16-F10 [2],reversibly inhibited
N=C(N)NCCC[C@H](NC(=O)CN)C(=O)NCC(=O)N[C@@H](CC(=O)O)C(=O)N[C@@H](CO)C(=O)O [GRGDS],infection from use of the agents,"B16-F10 melonoma; mouse, in vivo",No evidence of infection
same,wound healing process,"B16-F10 melonoma; mouse, in vivo",nor was the wound healing process delayed
same,average volume of tumors formed in other animals,B16-F10 melonoma; versus control animals,significantly smaller
same,formation of tumors in animals,B16-F10 melonoma; wound irrigation,inhibited formation of a significant percentage of tumors
"N=C(N)NCCC[C@H](NC(=O)CN)C(=O)NCC(=O)N[C@@H](CCC(=O)O)C(=O)N[C@@H](CO)C(=O)N1CCC[C@H]1C(=O)O [GRGESP, glycine-arginine-glycine-glutamate-serine-proline] (H-GRGESP-OH)",attachment of B16 melanoma cells,B16-F10 [1]; compared with GRGDSP,inhibited attachment of B16 melanoma cells but was less effective
"O=C(O)[C@@H]1CCN1 [LACA, L-azetidine-2-carboxylic acid]",minimal effective concentration,"B16-F10 [1]; Mus musculus, B16-F10, read-out: doses at which tumor cell attachment was inhibited",> 25 µg/mL
same,reversibility of inhibition of tumor cell attachment,B16-F10 [2],reversibly inhibited
[Na+].[O-]Cl [sodium hydrochlorite],preventing tumor growth,cancer cells; 0.5% solution buffered to pH 9,as effective as the above chemicals
same,toxicity to the animal,"cancer cells; in vivo, pH 9",considerably less toxic
monoxychlorosene,toxic effects locally and systemically,cancer cells; in vivo,highly toxic effects
same,toxicity to tissues,cancer cells; in vivo,toxic to tissues
same,wound healing process,cancer cells; in vivo,delayed the wound healing process
same,preventing tumor growth,cancer cells; one percent solution,ineffective
same,preventing tumor growth,cancer cells; two percent solutions,effective
